In patent US9233951B2, “Heterocyclic compounds as pesticides” (Bayer Intellectual Property GmbH, priority 2010, dated 2016):
Like-named read-outs stand apart in the source and are kept apart here.

How the values were obtained:
physchem = type: physicochemical
Procedure: 1 Method Description for Determination of the logP values and Mass Detection
Eluents for determination in the acidic range (pH 3.4): • Eluent A: acetonitrile+1 ml formic acid/l.
The λmax values were determined in the maxima of the chromatographic signals using the UV spectra from 200 nm to 400 nm. The mass was detected (M^+, m/z) by means of an Agilent MSD mass spectrometer.

[1] = tested on: green peach aphid (Myzus persicae); assay: Myzus persicae test (spray treatment); type: in vivo; conditions: foliar, 144 h, read-out: efficacy in %
Procedure: Myzus persicae Test (Spray Treatment)
• Solvent: 78 parts by weight of acetone • 1.5 parts by weight of dimethylformamide • Emulsifier: 0.5 part by weight of alkylaryl polyglycol ether
To prepare an appropriate active ingredient preparation, 1 part by weight of active ingredient is mixed with the stated amounts of solvent and emulsifier, and the concentrate is diluted with emulsifier-containing water to the desired concentration. Discs of Chinese cabbage (Brassica pekinensis) infested by all stages of the green peach aphid (Myzus persicae) are sprayed with an active ingredient preparation of the desired concentration.
After 6 days, the efficacy in % is determined. 100% means that all of the aphids have been killed; 0% means that none of the aphids have been killed.

[2] = reverse-phase HPLC column (C 18), pH 3.4, HPLC-MS value printed in the preparation example text, acidic range pH 3.4, read-out: logP (HCOOH)
[3] = reverse-phase HPLC column (C 18), pH 3.4, HPLC, reverse-phase C 18, acidic range pH 3.4, 55° C., table of compounds, read-out: logP (HCO2H)
[4] = application rate 500 g/ha, Chinese cabbage leaf discs sprayed, after 6 days, 100% = all aphids killed
[5] = pH 3.4, HPLC-MS value printed in the preparation example text, acidic range pH 3.4, read-out: logP (HCOOH)

chromatographic logP (physchem; [2]) | chromatographic logP (physchem; [3]) | Compound | pest or weed control at 500 g/ha [1, 4] | other results
2.45 |  | CC(F)(F)CNC(=O)c1cc(-c2ccc(Cl)nc2)ns1 [3-(6-Chloropyridin-3-yl)-N-(2,2-difluoropropyl)-1,2-thiazole-5-carboxamide] |  | 
0.45 |  | CCOC(=O)c1nc(C)c(-c2cccnc2)s1 [Ethyl 4-methyl-5-(3-pyridinyl)-1,3-thiazole-2-carboxylate] |  | 
 | 1.36 | CC(NC(=O)c1ccc(-c2cccnc2)o1)C1CC1 (stereo not shown) [Compound 8] | 80% | 
 | 0.8 | N#CCNC(=O)c1csc(-c2cccnc2)n1 [Compound 14] | 80% | 
0.65 | 0.65 | O=C(NCC(F)(F)F)n1cnc(-c2cccnc2)c1 [Compound 1, 4-(Pyridin-3-yl)-N-(2,2,2-trifluoroethyl)-1H-imidazole-1-carboxamide] | 100% | 
 | 1.06 | O=C(c1ccc(-c2cccnc2)o1)N1CCCC1 [Compound 10] |  | 
 |  | NC(=O)c1csc(-c2cccnc2)n1 [Compound 28] | 100% | 
 |  | CN(C)C(=O)C1CN=C(c2cccnc2)S1 (racemic) [Compound 41, (R,S)-4,5-Dihydro-N,N-dimethyl-2-(3-pyridinyl)-1,3-thiazole-5-carboxamide] | 100% | 
1.13 | 1.13 | O=C(NCC(F)(F)F)c1coc(-c2cccnc2)c1 [Compound 12, 5-(Pyridin-3-yl)-N-(2,2,2-trifluoroethyl)furan-3-carboxamide] | 90% | 
 | 1.4 | O=C(NCC(F)(F)F)C1CN=C(c2cncnc2)S1 (stereo not shown) [Compound 45] | 100% | 
1.56 |  | O=C(O)c1cc(-c2ccc(Cl)nc2)ns1 [3-(6-Chloropyridin-3-yl)-1,2-thiazole-5-carboxylic acid] |  | 
0.35 |  | O=C(O)c1csc(-c2cccnc2)n1 [2-(Pyridin-3-yl)-1,3-thiazole-4-carboxylic acid] |  | 
0.3 |  | O=C(O)C1CN=C(c2cncnc2)S1 (racemic) [(R,S)-4,5-Dihydro-2-(5-pyrimidinyl)-1,3-thiazole-5-carboxylic acid] |  | 
1.46 | 1.46 | Cc1nc(-c2cccnc2)oc1C(=O)NCC(F)(F)F [Compound 4, 4-Methyl-2-(pyridin-3-yl)-N-(2,2,2-trifluoroethyl)-1,3-oxazole-5-carboxamide] |  | 
 | 1.27 | O=C(NCC=CCl)c1ccc(-c2cccnc2)o1 [Compound 18] | 90% | logP (HCO2H) (physchem; HPLC, reverse-phase C 18, acidic range pH 3.4, 55° C., table of compounds): 1.33
 | 0.83 | CCCNC(=O)c1ccc(-c2cccnc2)o1 [Compound 32] | 100% | 
 | 1.58 | CCN(CC)C(=O)c1oc(-c2cccnc2)cc1C [Compound 24] | 90% | 
 | 1.46 | O=C(NCc1cccs1)c1ccc(-c2cccnc2)o1 [Compound 17] | 100% | 
0.56 |  | Cc1nc(-c2cccnc2)oc1C(=O)O [4-Methyl-2-(pyridin-3-yl)-1,3-oxazole-5-carboxylic acid] |  | 
 | 1.33 | O=C(NCC(F)(F)F)c1cc(-c2cccnc2)no1 [Compound 40] |  | 
 |  | O=C(NCC(F)(F)F)C1CN=C(c2cccnc2)S1 (stereo not shown) [Compound 42] |  | chromatographic logP (physchem; pH 3.4, logP (HCO2H)): 0.54
 | 0.72 | C#CCNC(=O)c1ccc(-c2cccnc2)o1 [Compound 22] | 100% | 
1.28 | 1.28 | Cc1c(C(=O)NCC(F)(F)F)ncn1-c1cccnc1 [Compound 50, 5-Methyl-1-(pyridin-3-yl)-N-(2,2,2-trifluoroethyl)-1H-imidazole-4-carboxamide] |  | 
 |  | O=C(NCC(F)F)c1csc(-c2cccnc2)n1 [Compound 33, N-(2,2-Difluoroethyl)-2-(pyridin-3-yl)-1,3-thiazole-4-carboxamide] |  | chromatographic logP (physchem; pH 3.4, HPLC, reverse-phase C 18, acidic range pH 3.4, 55° C., table of compounds, read-out: logP (HCO2H)): 1.22; chromatographic logP (physchem; [5]): 1.18; pest or weed control at 500 g/ha ([1]; in Brassica rapa): 100%

chromatographic logP (physchem; [2]) | chromatographic logP (physchem; [3]) | Compound | pest or weed control at 500 g/ha [1, 4] | other results
 | 0.51 | CN(C)C(=O)c1ccc(-c2cccnc2)o1 [Compound 7] | 100% | 
 | 0.62 | O=C(NCc1ncccn1)c1cc(-c2cccnc2)no1 [Compound 3] | 100% | 
1.21 |  | CCOC(=O)c1nnc(-c2cccnc2)o1 [Ethyl 5-(pyridin-3-yl)-1,3,4-oxadiazole-2-carboxylate] |  | 
0.9 | 0.9 | O=C(NCc1ncccn1)C1CN=C(c2cncnc2)S1 (racemic) [Compound 44, (R,S)-4,5-Dihydro-N-(pyrimidin-2-ylmethyl)-2-(5-pyrimidinyl)-1,3-thiazole-5-carboxamide] | 80% | 
1.43 | 1.43 | CN(C)C(=O)c1cnc(-c2cccnc2)o1 [Compound 25, N,N-Dimethyl-2-(pyridin-3-yl)-1,3-oxazole-5-carboxamide] | 90% | 
 | 1.39 | CSC[C@H](C)NC(=O)c1nnc(-c2cccnc2)o1 [Compound 35] | 80% | 
1.13 | 1.13 | CSCCNC(=O)c1nnc(-c2cccnc2)o1 [Compound 34, N-(2-Methylmercaptoethyl)-5-(pyridin-3-yl)-1,3,4-oxazole-2-carboxamide] |  | 
 | 0.72 | CN(CC#N)C(=O)c1ccc(-c2cccnc2)o1 [Compound 16] | 90% | 
1.51 | 1.51 | O=C(NCC(F)(F)F)c1cc(-c2cccnc2)on1 [Compound 39, 5-(Pyridin-3-yl)-N-(2,2,2-trifluoroethyl)-1,2-oxazole-3-carboxamide] |  | 
1.21 | 1.21 | O=C(NCC(F)(F)F)c1nnc(-c2cccnc2)o1 [Compound 49, 5-(Pyridin-3-yl)-N-(2,2,2-trifluoroethyl)-1,3,4-oxadiazole-2-carboxamide] |  | 
0.07 |  | O=C(O)c1coc(-c2cccnc2)c1 [5-(Pyridin-3-yl)furan-3-carboxylic acid] |  | 
0.95 |  | O=C(NCC(F)(F)F)n1cc(-c2cccnc2)cn1 [Compound 48] |  | 
1.62 | 1.62 | Cc1cc(-c2cccnc2)sc1C(=O)NCC(F)(F)F [Compound 5, 3-Methyl-5-(pyridin-3-yl)-N-(2,2,2-trifluoroethyl)thiophene-2-carboxamide] |  | 
1.26 |  | COC(=O)c1ccn(-c2cccnc2)c1 [Methyl 1-(pyridin-3-yl)pyrrole-3-carboxylate] |  | 
1.74 | 1.74 | Cc1nc(C(=O)NCC(F)(F)F)sc1-c1cccnc1 [Compound 47, 4-Methyl-5-(3-pyridyl)-N-(2,2,2-trifluoroethyl)-1,3-thiazole-2-carboxamide] |  | 
-0.06 |  | O=C(O)c1cnc(-c2cccnc2)o1 [2-(Pyridin-3-yl)-1,3-oxazole-5-carboxylic acid] |  | 
 | 2.02 | O=C(NCC1CCCCC1)c1ccc(-c2cccnc2)o1 [Compound 15] |  | 
1.96 |  | Cc1cc(-c2cccnc2)sc1C(=O)O [3-Methyl-5-(pyridin-3-yl)thiophene-2-carboxylic acid] |  | 
 |  | O=C(O)C1CN=C(c2cccnc2)S1 (racemic) [(R,S)-4,5-Dihydro-2-(3-pyridinyl)-1,3-thiazole-5-carboxylic acid] |  | chromatographic logP (physchem; [5]): 0.75
-0.03 |  | O=C(O)c1cn(-c2cccnc2)nn1 [1-(Pyridin-3-yl)-1H-1,2,3-triazole-4-carboxylic acid] |  | 
3.33 |  | CCOC(=O)c1cc(-c2ccc(Cl)nc2)ns1 [Ethyl 3-(6-chloropyridin-3-yl)-1,2-thiazole-5-carboxylate] |  | 
 | 0.99 | CN(C)C(=O)C1CN=C(c2cncnc2)S1 (stereo not shown) [Compound 46] |  | 
1.03 |  | CCOC(=O)c1ncn(-c2cccnc2)c1C [Ethyl 5-methyl-1-(pyridin-3-yl)-1H-imidazole-4-carboxylate] |  | 
1.15 |  | CCOC(=O)c1cn(-c2cccnc2)nn1 [Ethyl 1-(pyridin-3-yl)-1H-1,2,3-triazole-4-carboxylate] |  | 

Compound | chromatographic logP (physchem; [2]) | chromatographic logP (physchem; [3]) | pest or weed control at 500 g/ha [1, 4] | other results
CC(F)(F)CNC(=O)c1cc(-c2cccnc2)ns1 [Compound 38, N-(2,2-Difluoropropyl)-3-(pyridin-3-yl)-1,2-thiazole-5-carboxamide] | 1.33 | 1.33 |  | pest or weed control at 500 g/ha ([1]; in Brassica rapa): 100%
O=C(NCC(F)(F)F)c1ccn(-c2cccnc2)c1 [Compound 36, 1-(Pyridin-3-yl)-N-(2,2,2-trifluoroethyl)pyrrole-3-carboxamide] | 1.24 | 1.24 |  | pest or weed control at 500 g/ha ([1]; in Brassica rapa): 90%
O=C(NCC(F)(F)Br)c1ccc(-c2cccnc2)o1 [Compound 26] |  | 1.49 |  | 
